Measured values taken from patent publication US20020142982A1, “Method for regulating angiogenesis” (priority 1999, published 2002).
Values joined by “and” are separate entries in the source; they are usually repeats but may differ in a detail not shown here. Identical values can stand only once.

Key:
[1] = target: EDG-1 (Homo sapiens, UniProt P21453); conditions: 32P-SPP, HEK293EDG-1 cells; read-out: dissociation constant, Kd, of SPP binding to EDG-1; cited from earlier work
[2] = test system: EDG-1; assay: EDG-1 phosphorylation in 32P-labeled HEK293EDG-1 cells; type: cell-based; conditions: 100 nM S1P
Method: FIG. 26 is an SDS PAGE showing that S1P treatment induces EDG-1 phosphorylation. HEK293EDG-1 were labeled with [^32P]-orthophosphate, and stimulated with 100 nM S1P for indicated times. Some cultures were treated with 10 μM LY294002.
To label the EDG-1 receptor in HUVEC and HEK293EDG-1 cells, they were pre-incubated in phosphate-free DMEM (GIBCO-BRL) for 2 hr. Subsequently, cells were labeled with [^32P] orthophosphate (80 μCl/ml) for 3 hr. To examine the effect of P1-3 kinase, cultures were treated with wortmannin (100 nM) or LY294002 (10 μM) during tine last hour of labeling. After SPP stimulation, ^32P-labeled EDG-1 receptor was immunoprecipitated with either chicken anti-EDG-1 1gY or anti-M2, resolved on SDS-PAGE, and visualized by autoradiography.

[3] = test system: HUVEC; assay: Actin cytoskeleton (stress fibers, cortical actin) in HUVEC, phalloidin staining; type: cell-based, human; conditions: 500 nM SPP, 30 minutes
Method: SPP is known to induce Rho-dependent actin stress fibers in NIH3T3 fibroblasts. To disclose Rho- or Rac-dependence, HUVEC were plated at 2×10^5 cells in 35 mm glass bottom petri dishes (Plastek cultureware, Mat Tek Corporation, Ashland Mass.). Two days later, recently confluent cells were washed and changed to medium M199 supplemented with 10% dialyzed charcoal-stripped fetal bovine serum (CFBS) and growth factors for 16 hours. Approximately 500-800 cells were then microinjected cytoplasmically with Rho inhibitor C3 exoenzyme (0.1 μg/μL, Calbiochem) or dominant negative N17Rac protein (0.35 μg/μl; Ridley, A., et al., Cell 70: 401-410 (1992)) using Femtotips (Eppendorf) at 100 hPa/0.2 sec. Injected cells were marked by coinjection of FITC-rabbit IgG (5 mg/mL, Cappel).
Subsequently, cells were treated with or without SPP. After treatment cells were washed with ice-cold PBS, fixed with 4% formaldehyde at room temperature or methanol at −20° C. for 15 minutes. In the case of formaldehyde fixation, cells were permeabilized with 0.2% Triton X-100 (TX-100). Actin microfilaments were visualized by staining with either FTOC- or TRITC-conjugated phalloidin (0.05 μg/mL, Sigma) for 30 minutes at room temperature.

[4] = test system: HUVEC; assay: Adherens junction assembly in HUVEC, immunofluorescence of VE-cadherin and catenins; type: cell-based, human; conditions: 500 nM, 1 hour
Method: To investigate whether SPP regulates the formation of adherens junction in endothelial cells, HUVEC were plated at a density of 2×10^4 cells/em^2 for 2 days, starved in lipid-depleted medium and treated without (cont) or with SPP (500 nM for 1 hours). For these experiments, after treatment cells were washed with ice-cold PBS, fixed with 4% formaldehyde at room temperature or methanol at −20° C. for 15 minutes. In the case of formaldehyde fixation, cells were permeabilized with 0.2% TX-100. After washing with PBS, cells were stained with antibodies as follows: VE-cadherin ([…], Transduction Labs, San Diego, Calif.; 1 μg/mL, Santa Cruz Biotechnology, Inc., Santa Cruz, Calif.), α-catenin ([…], Transduction Labs), β-catenin (1.25 μg/mL, Transduction Labs; 0.4 μg/mL, Santa Cruz), γ-catenin ([…], Transduction Labs). The primary antibody staining was visualized with FITC-conjugated goat anti-rabbit or TRITC conjugated sheep anti-mouse (1:1000, Cappel, now owned by ICN, Costa Mesa, Calif.) for 30 minutes at room temperature, and imaged on a Zeiss Axiovert 100TV fluorescence microscope. […]

[5] = test system: bovine microvascular endothelial cells; assay: Morphogenesis of bovine microvascular endothelial cells; type: cell-based; conditions: SPP 100 nM to 1 μM, data not shown
[6] = test system: ERK-2; assay: ERK-2 immune complex kinase assay in HUVEC; type: cell-based, human; conditions: SPP 10-500 nM, 10 minutes, starved HUVEC
Method: As a second functional assay, ERK-2 kinase activity was measured in response to SPP treatment. For these experiments, endothelial cells were starved for 19 hours, and then stimulated with SPP for 10 minutes. Cells were then lysed, and ERK-2 kinase activity was measured by an immune complex kinase assay using myelin basic protein (MBP) as substrate. Some cells were pretreated with pertussis toxin (PTx) at 200 ng/mL, or PD98059 at 10 μM for 2 hours prior to stimulation.

[7] = test system: HUVEC; assay: C2-Ceramide-induced apoptosis of HUVEC (DNA fragmentation); type: cell-based, human; conditions: SPP 10 to 500 nM, 1 μM C2-Ceramide, 12 hours
Method: The ability of SPP to protect endothelial cells from apoptosis was investigated. In these experiments, HUVEC were treated with 1 μM C2-Ceramide for 12 hours and apoptosis was measured in the following manner: HUVEC were plated onto coverslips and allowed to grow for 2 days. Cells were washed three times with medium M199, and treated with 1 μM C2-Ceramide (Biomol) for 12 hours in the presence or absence of SPP. Subsequently, cells were fixed with methanol at −20° C. for 5 minutes, air dried, and stained with Hoechst 33258 dye (0.5 μg/mL for 5 minutes; Sigma Chemical Co., St. Louis, Mo.). The apoptotic nuclei were identified with the aid of a Zeiss Axiovert 100TB fluorescence microscope. For quantification, HUVEC were labeled with ^3Hmethyl-thymidine (5 μCi/mL, NEN DuPont) for 24 hours. Following three washes with medium M199, cells were treated with C2-Ceramide as above. 12 hours later, cells were extracted with lysis buffer (5 mM tris, pH 7.4, 2 mM EDTA, 0.5% TX-100) at 4° C. for 20 minutes. After centrifugation (15,000 g, 20 minutes), the radioactivity present in the supernatant and sediment was measured by liquid scintillation counting. The percentage of DNA fragmentation was determined as ((supernatant cpm)/(supernatant cpm+sediment cpm))×100%.
SPP+PTx and SPP+PD98059 (10 μM), respectively, for 2 hours prior to the addition of C2-Ceramide (1 μM) and SPP (10 to 500 nM). Data are mean±standard deviation of triplicate determinations from a representative experiment which was repeated two times. […] A similar effect was also seen when growth factor withdrawal, and 15-deoxy Δ^12,14 prostaglandin J2 were used as apoptotic stimuli (data not shown). […] Therefore SPP induced endothelial cell survival requires the Gi/ERK signaling pathway.

Chain of EDG-1 (Homo sapiens, UniProt P21453) (P21453 whole entry): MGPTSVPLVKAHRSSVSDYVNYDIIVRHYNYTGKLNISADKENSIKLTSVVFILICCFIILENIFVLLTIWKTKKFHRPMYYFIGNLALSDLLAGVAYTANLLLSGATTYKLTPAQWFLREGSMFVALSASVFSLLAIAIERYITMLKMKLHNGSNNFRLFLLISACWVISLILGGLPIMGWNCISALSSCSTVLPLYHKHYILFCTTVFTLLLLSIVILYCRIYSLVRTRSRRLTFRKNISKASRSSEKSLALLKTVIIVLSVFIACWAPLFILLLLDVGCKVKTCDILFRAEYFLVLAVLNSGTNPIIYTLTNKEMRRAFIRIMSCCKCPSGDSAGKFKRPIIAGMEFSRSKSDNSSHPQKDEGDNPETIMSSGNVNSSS

CCCCCCCCCCCCC/C=C/[C@@H](O)[C@@H](N)COP(=O)(O)O [SPP, sphingosine-1-phosphate]
Kd [1]: 8.1 nM and 8 nM
phosphorylation of EDG-1 [2]: induced a time-dependent phosphorylation
formation of stress fibers and cortical actin [3]: induced the formation of stress fibers
VE-cadherin, α-, β- and γ-catenin localization at cell-cell junctions [4]: dramatically increased
morphogenesis of bovine microvascular endothelial cells [5]: induced morphogenesis
ERK activity [6]: activated ERK activity in a dose-dependent manner
protection from apoptosis induced by C2-Ceramide [7]: significantly protected
